Measurements published in patent EP0400799A1, “Phenylpyrimidone derivatives” (SMITH KLINE & FRENCH LABORATORIES LIMITED, priority 1989, dated 1990).

Legend:
[1] = tested on: hindquarter blood flow; assay: Vasodilatation in vivo, perfused hindquarter blood flow; settings: Rattus norvegicus, iv; dose producing a 50% increase in hindquarter blood flow; anaesthetised male Wistar rats; bolus i.v.; read-out: EDHQ₅₀
Procedure: Male Wistar rats (300 g) were anaesthetised with a sodium 5-ethyl-5-(1-methylpropyl)-2-thiobarbiturate/sodium pentobarbitone mixture i.p. (62.5 and 22.5 mg/kg respectively). The trachea was cannulated and the rats breathed spontaneously air enriched with O₂ (5 ml/min). Blood pressure was recorded from a carotid artery and a jugular vein was cannulated for the administration of compounds. The temperature of the animal was maintained at 37°C by the use of an electric blanket. […] The perfusion circuit was primed with 5% bovine serum albumin dissolved in 0.9% sodium chloride solution, pH adjusted to 7.4. Initially the pump rate was set between 10 and 15 ml/min to match the hind quarter perfusion pressure to that of the systemic circulation. Once set, the pressure remained unaltered for the rest of the experiment. A change in the speed of the pump (equivalent to hindquarter blood flow) was used to assess the changes in hindquarter vascular resistance.
All compounds were administered as a bolus i.v. and from the dose response curves the dose required to produce a 50% increase in hindquarter blood flow (EDHQ₅₀) was determined in µmoles/kg.

[2] = tested on: U46619-induced bronchoconstriction; assay: Bronchodilatation in vivo, U46619-induced bronchoconstriction (airway resistance, Konzett-Rossler); parameters: species or system guinea-pigs of the Dunkin Hartley strain; settings: Cavia porcellus, iv; dose reducing U46619-induced bronchoconstriction by 50%; anaesthetised male guinea-pigs; i.v. bolus; U46619 infused i.v. 2.5 nmol/min; read-out: BD₅₀
Procedure: B. Male guinea-pigs of the Dunkin Hartley strain (500 - 600g) were anaesthetised with Sagatal (pentobarbital sodium) (60 mg/kg). Airway resistance was measured using a modification of the classical Konzett-Rossler technique (J. Pharm. Methods, 13, 309-315, 1985). U46619 (9,11-methanoepoxy-PGH₂) was infused i.v. at a rate of 2.5 nmol/min, this produced a steady state of bronchoconstriction (approximately 120% increase from basal airway resistance). The compound under test was administered by i.v. bolus injection, and the subsequent peak inhibition of bronchoconstriction recorded.
The dose of compound required to reduce the U46619-induced bronchoconstriction by 50% is given as the BD₅₀.

[3] = tested on: histamine bronchoconstriction; assay: Bronchodilatation in vivo, histamine-induced bronchoconstriction (airway resistance, Konzett-Rossler); parameters: species or system guinea-pigs of the Dunkin Hartley strain; settings: Cavia porcellus, iv; dose reducing histamine bronchoconstriction by 50%; anaesthetised male guinea-pigs; i.v. bolus one minute before histamine challenge; read-out: BD₅₀
Procedure: A. Male guinea-pigs of the Dunkin Hartley strain (500 - 600 g) were anaesthetised with Sagatal (pentobarbital sodium) (60 mg/kg i.p.). Airway resistance was measured using a modification of the classical Konzett-Rossler technique (J. Pharm. Methods, 13, 309-315, 1985). A dose of histamine which gave approximately 150% increase in airway resistance was selected for i.v. administration. Bolus doses of the compound under test were administered (i.v.) one minute before the histamine challenge and the subsequent peak inhibition of bronchoconstriction recorded.
The dose of compound required to reduce the histamine bronchoconstriction by 50% is given as the BD₅₀.

Structure (SMILES) | ED50 [1] | ED50 [2] | ED50 [3]
CCCOc1ccccc1-c1nccc(=O)[nH]1 [Ex 5, 2-(2-Propoxyphenyl)pyrimidin-4(3H)-one] | 22 µmol/kg | 3.2 µmol/kg | 
CCCOc1ccccc1-c1ncc(NC(C)=O)c(=O)[nH]1 [Ex 4, 5-Acetamido-2-(2-propoxyphenyl)pyrimidin-4(3H)-one] | 15.8 µmol/kg | 3.8 µmol/kg | 8.4 µmol/kg
CCCOc1ccccc1-c1ncc(C(N)=O)c(=O)[nH]1 [y, 1,6-dihydro-6-oxo-2-(2-propoxyphenyl)pyrimidine-5-carboxamide, reference compound] | 23 µmol/kg |  | 5.6 µmol/kg
CCCOc1ccccc1-c1ncc(N)c(=O)[nH]1 [Ex 3, 5-Amino-2-(2-propoxyphenyl)pyrimidin-4(3H)-one] | 19 µmol/kg |  | 8.34 µmol/kg
